Measured values published in patent publication US5770593A, “Method of determining a pharmaceutical combination preparations for use in anti-neoplastic therapy” (Boehringer Mannheim GmbH, priority 1988, dated 1998).
Like-named read-outs stand apart in the source and are kept apart here.

Columns and labels:
Walker carcinoma cells = assay: Inhibition of multiplication of Walker cells (cell proliferation), single active material or combination, Chou and Talalay analysis; assay type: cell-based, rat
Procedure: Dose-action curves for individual active materials or active material combinations were obtained by the addition of corresponding active materials to a suspension of Walker cells (10^5 cells/ml.). After an incubation time of 48 hours, the cells were counted with the help of an electronic counter (Coulter Electronics, Luton, U.K.). The multiplication of the cells (M) was calculated according to the following formula:
in which C stands for the untreated control cells, T signifies the number of treated cells and the indices 0 and t indicate the number of the cells at the time point 0 and after 48 h.
The data used for the calculation originated from at least three different experiments.

protein kinase C = assay: Inhibition of protein kinase C (PK-C): in vitro method, 32P incorporation into H1 histone; assay type: biochemical, rat
Procedure: b) Inhibition of protein kinase C (PK-C): in vitro method.
However, to the extracts was additionally added 1 mM phenylmethanesulphonyl chloride, 20 μg./ml. leupeptin and 2 μg./ml. aprotinin. […] 1,2-s,n-diolein. The reaction time was 10 minutes at 32° C. The enzyme reaction was stopped by the addition of 1 ml. 20% trichloroacetic acid (w/v). The protein was precipitated out on Whatman GF/F filter paper and counted with the help of a liquid scintillation counter.
Quercetin was solubilised in dimethyl sulphoxide (DMSO). For the batch mixing, the solution in DMSO was made up to a DMSO end concentration of 1%. An equivalent amount of pure DMSO was added to the control groups. The influence of quercetin on the cell multiplication was investigated by the addition of the active material in DMSO to the culture medium up to an end concentration of 0.1%. The cells were cultured in the presence of the active material for 48 hours. The control group only received pure DMSO.

[1] = system: Meth A-fibrosarcoma cells; assay: [3H]-Thymidine incorporation, inhibition of tumour cell proliferation; assay type: cell-based; settings: Table 2; ilmofosin alone; read-out: IC50, inhibition of tumour cell proliferation, single active material
Procedure: b) [3H]-Thymidine incorporation.
The cytostatic or cytotoxic effect of the active materials or active material combinations on Meth A-fibrosarcoma cells was investigated in vitro on the basis of the reduced incorporation of [3H]-thymidine. The cells were suspended in DMEM, 10% FCS, 50 μM 2-mercaptoethanol, 100 U/ml. penicillin and 100 μg./ml. streptomycin up to an end concentration of 5×10^4 /ml. in the absence of the active materials. The active materials were added to the cells in an end volume of 20 μl. Per concentration, 6 cultures of 0.2 ml. were used and incubated in microtitre plates in a moist atmosphere. The cultures were pulsed for 3 hours with 1 μCi […] [methyl-^3 H]-thymidine(specific activity 5 Ci/mmol). The samples were subsequently collected and washed several times. The filter plates used were dried and transferred to scintillation test tubes. The radio-active incorporation was measured by the addition of Rotiscint.
The IC50 values for a combination of ilmofosin with CDDP or doxorubicin were determined in the manner described above in Example 7b).

[2] = Rattus norvegicus, 48 h, read-out: IC50 cell proliferation
[3] = Rattus norvegicus, 48 h, read-out: IC50 cell proliferation in combination with cis-DDP
[4] = combination of the inhibitor with cis-DDP, 48 hours; method of Chou and Talalay
[5] = Table 1, 50% inhibition of the protein kinase C, read-out: inhibition of the protein kinase C IC50
[6] = protein kinase C enriched from Walker cells, 10 minutes at 32° C., pH 7.4, read-out: IC50, inhibition of protein kinase C (Examples 2-6)
[7] = Rattus norvegicus, 48 h; read-out: IC50 cell proliferation in combination with cis-DDP

With `O=c1c(O)c(-c2ccc(O)c(O)c2)oc2cc(O)cc(O)c12` [quercetin, 3,3',4',5,7-pentahydroxyflavone] the IC50 (Walker carcinoma cells; [2]) was 23 µM, the IC50 (Walker carcinoma cells; [3]) was 3.8 µM and the “nature of the activity” value (Walker carcinoma cells; [4]) was “synergism”. For the same molecule, the IC50 (protein kinase C; [5]) was 25 µM and the IC50 (protein kinase C; [6]) was 25 µM.
For `CC/C(=C(\c1ccccc1)c1ccc(OCCN(C)C)cc1)c1ccccc1` [tamoxifen], the “nature of the activity” value (Walker carcinoma cells; [4]) was “synergism”.
In the case of `CCCCCCCCCCCCCCCCCCOCC(COP(=O)([O-])OCC[N+](C)(C)C)OC` (stereo not drawn) [ET-18-OCH3, 4-hydroxy-7-methoxy-N,N,N-trimethyl-3,5,9-trioxa-4-phosphaheptacosan-1-aminium 4-oxide], the IC50 (Walker carcinoma cells; [7]) is reported as 1.7 µM and the IC50 (Walker carcinoma cells; Rattus norvegicus; Table 1; single active material, 48 hours; read-out: IC50 cell proliferation) is reported as 5.8 µM.
In the case of `CCCCCCCCCCCCCCCCSCC(COC)COP(=O)([O-])OCC[N+](C)(C)C` (stereo not drawn) [ilmofosin], the IC50 (Walker carcinoma cells; [7]) is reported as 2 µM, the “nature of the activity” value (Walker carcinoma cells; [4]) is reported as “synergism” and the IC50 [1] is reported as 1.06 µg/mL. The IC50 (protein kinase C; [5]) was 0.56 µM and the IC50 (protein kinase C; [6]) was 20 µM.
`N.N.[Cl][Pt][Cl]` [cis-DDP, cis-diammine-dichloroplatinum (II)] was tested, and the IC50 (Walker carcinoma cells; Table 1; single active material, 48 hours; read-out: IC50 cell proliferation) was 0.23 µM and the IC50 (protein kinase C; [5]) was over 1000 µM.
In the case of `CN[C@@H]1C[C@H]2O[C@@](C)([C@@H]1OC)n1c3ccccc3c3c4c(c5c6ccccc6n2c5c31)C(=O)NC4` [staurosporin], the IC50 (Walker carcinoma cells; [2]) is reported as 0.4 µM, the IC50 (Walker carcinoma cells; [3]) is reported as 0.004 µM and the “nature of the activity” value (Walker carcinoma cells; [4]) is reported as “synergism”.
